From PMC3564010, “Exposure to Acetylcholinesterase Inhibitors Alters the Physiology and Motor Function of Honeybees” (Frontiers in Physiology, 2013)

System: T1, AChE (honeybee gut lysate)
T1 construct: gene AChE-1; total AChE activity
Experiment: Ellman assay, […] nm, Hill fit
Type: biochemical, Apis mellifera mellifera
Conditions: gut homogenate; […] min incubation; […] acetylthiocholine iodide, […] DTNB; PBS

COc1cc2c(cc1OC)C(=O)C(CC1CCN(Cc3ccccc3)CC1)C2 (stereo not shown) [Donepezil]
IC50: 115 ± 5.86 nM
